Measurements: patent publication US5698516A, “Biologically active vasopressin analogues” (Ferring B.V., priority 1993, dated 1997)
Read-outs that look alike come from different tables or passages of the source. Numbered stars: 1 amine (or outer) side, 2 acyl side, 3 side chain; on linkers, the order of the positions; unused ones are H or OH. Bridge positions count the residues as written; N and C are the ends. Square brackets hold non-standard residues; d marks the D form. Peptide text beside a SMILES is read from it. Hyp = O=C(O)[C@@H]1C[C@@H](O)CN1; 2Thi = N[C@@H](Cc1cccs1)C(=O)O; d2Thi = N[C@H](Cc1cccs1)C(=O)O; Iva = CC[C@](C)(N)C(=O)O; X1 = O=C(CCC[*:2])[*:1]

What was measured:
[1] = rat, in vivo
Protocol: (§1) b) Gastrointestinal absorption of peptides [(FAD)V ]
(§2) Absorption of peptides administered in the intestine through a surgically introduced plastic tube (10 cm distal of pylorus) was determined by comparing the antidiuretic effect (area under curve) after intestinal administration with the antidiuretic effect after intravenous adminstration.

[2] = in vivo; cited from earlier work
[3] = rat, in vivo; remark: listed apart in the source
Protocol: (§3) c) Intranasal absorption of peptides (FAD)in
(§4) Absorption of peptides administered in a volume of 30 μl in the nasal cavity through a PE20 cannula attached to a Hamilton syringe (introduced 10 mm without surgery), was determined by comparing the antidiuretic effect (area under curve) after intranasal administration with the antidiuretic effect after intravenous administration.

rat = experiment: Antidiuretic activity (ADiv), rat model, urine conductivity after intravenous challenge; assay type: in vivo; conditions: conductivity of urine
Protocol: a) Antidiuretic activity (ADiv)
The antidiuretic activity of the peptides was determined in the well established rat model which is based on continuous measurement of the conductivity of the urine produced by the rat after an intravenous challenge with peptide (J. Medicinal Chem. (1978), 21, 352-356).

[4] = Gastrointestinal absorption of peptides (FAD)V, intestinal vs intravenous antidiuretic effect; conditions: rat, intestinal administration via tube 10 cm distal of pylorus; antidiuretic effect AUC vs intravenous
Protocol: as §1, §2

[5] = Intranasal absorption of peptides (FAD)in, intranasal vs intravenous antidiuretic effect; conditions: rat, 30 μl in nasal cavity; antidiuretic effect AUC vs intravenous
Protocol: as §3, §4

NC(=O)CC[C@@H]1NC(=O)[C@H](Cc2ccccc2)NC(=O)[C@H](Cc2ccc(O)cc2)NC(=O)CCSSC[C@@H](C(=O)N2CCC[C@H]2C(=O)N[C@H](CCCN=C(N)N)C(=O)NCC(N)=O)NC(=O)[C@H](CC(N)=O)NC1=O [DDAVP, 1-desamino-8-D-arginine vasopressin]
(FAD)V (gastrointestinal absorption) [1]: 0.09% | decrease of bioavailability by intranasal route [2]: about 10 times | (FAD)in (intranasal absorption) [3]: 8% | ADiv (antidiuretic activity) (rat): 1100 IU/μmol

CC[C@]1(C)NC(=O)[C@H](Cc2cccs2)NC(=O)[C@@H](Cc2ccccc2)NC(=O)CCCSC[C@@H](C(=O)N2C[C@H](O)C[C@H]2C(=O)N[C@H](CCCNC(=N)N)C(=O)NCC(N)=O)NC(=O)[C@H](CC(N)=O)NC1=O [Ex. 1] ([dF][2Thi][Iva]NC[Hyp][dR]G-NH2; linker N-5 via X1)
(FAD)V (gastrointestinal absorption) [4]: 1.3% | (FAD)in (intranasal absorption) [5]: 42%

CC(C)[C@@H]1NC(=O)[C@H](Cc2cccs2)NC(=O)[C@@H](Cc2ccccc2)NC(=O)CCCSC[C@@H](C(=O)N2C[C@H](O)C[C@H]2C(=O)N[C@H](CCCNC(=N)N)C(=O)NCC(N)=O)NC(=O)[C@H](CC(N)=O)NC1=O [Ex. 2] ([dF][2Thi]VNC[Hyp][dR]G-NH2; linker N-5 via X1)
(FAD)V (gastrointestinal absorption) [4]: 1.2% | (FAD)in (intranasal absorption) [5]: 20%

CC(C)[C@@H]1NC(=O)[C@H](Cc2ccccc2)NC(=O)[C@@H](Cc2ccc(O)cc2)NC(=O)CCCSC[C@@H](C(=O)N2CCC[C@H]2C(=O)N[C@H](CCCNC(=N)N)C(=O)NCC(N)=O)NC(=O)[C@H](CC(N)=O)NC1=O [Ex. 3, reference compound] ([dY]FVNCP[dR]G-NH2; linker N-5 via X1)
(FAD)V (gastrointestinal absorption) [4]: 0.4% | (FAD)in (intranasal absorption) [5]: 5%

CC[C@]1(C)NC(=O)[C@H](Cc2cccs2)NC(=O)[C@@H](Cc2cccs2)NC(=O)CCCSC[C@@H](C(=O)N2C[C@H](O)C[C@H]2C(=O)N[C@H](CCCNC(=N)N)C(=O)NCC(N)=O)NC(=O)[C@H](CC(N)=O)NC1=O [Ex. 4] ([d2Thi][2Thi][Iva]NC[Hyp][dR]G-NH2; linker N-5 via X1)
(FAD)V (gastrointestinal absorption) [4]: 2.5% | (FAD)in (intranasal absorption) [5]: 22%

CC[C@]1(C)NC(=O)[C@H](Cc2cccs2)NC(=O)[C@@H](Cc2ccc(O)cc2)NC(=O)CCCSC[C@@H](C(=O)N2C[C@H](O)C[C@H]2C(=O)N[C@H](CCCNC(=N)N)C(=O)NCC(N)=O)NC(=O)[C@H](CC(N)=O)NC1=O [Ex. 5] ([dY][2Thi][Iva]NC[Hyp][dR]G-NH2; linker N-5 via X1)
(FAD)V (gastrointestinal absorption) [4]: 1.4% | (FAD)in (intranasal absorption) [5]: 17%

CSCC[C@@H]1NC(=O)[C@@H](Cc2cccs2)NC(=O)CCCSC[C@@H](C(=O)N2C[C@H](O)C[C@H]2C(=O)N[C@H](CCCNC(=N)N)C(=O)NCC(N)=O)NC(=O)[C@H](CC(N)=O)NC(=O)[C@H](C(C)C)NC1=O [Ex. 6] ([d2Thi]MVNC[Hyp][dR]G-NH2; linker N-5 via X1)
(FAD)V (gastrointestinal absorption) [4]: 1.6% | (FAD)in (intranasal absorption) [5]: 22%
